# Assay results from PubChem BioAssay (NCI).
#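 Tested at 5 concentrations; 48 h exposure; 96-well plates; endpoints linearly interpolated, else capped at highest concentration. TGI: total growth inhibition.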
# How the values were obtained:
# Test in all cases: inhibition of tumour cell growth, NCI panel, 48 h
# UACC-62 melanoma = tested on: UACC-62 melanoma
# M14 melanoma = tested on: M14 melanoma
# MALME-3M melanoma = tested on: MALME-3M melanoma
# K-562 leukemia = tested on: K-562 leukemia
# SR leukemia = tested on: SR leukemia
# SK-MEL-28 melanoma = tested on: SK-MEL-28 melanoma
# CAKI-1 renal = tested on: CAKI-1 renal
# HL-60(TB) leukemia = tested on: HL-60(TB) leukemia
# OVCAR-5 ovarian = tested on: OVCAR-5 ovarian
# HCC-2998 colon = tested on: HCC-2998 colon
SMILES,TGI (UACC-62 melanoma) [µM],TGI (M14 melanoma) [µM],TGI (MALME-3M melanoma) [µM],TGI (K-562 leukemia) [µM],TGI (SR leukemia) [µM],TGI (SK-MEL-28 melanoma) [µM],TGI (CAKI-1 renal) [µM],TGI (HL-60(TB) leukemia) [µM],TGI (OVCAR-5 ovarian) [µM],TGI (HCC-2998 colon) [µM]
CCN1CN(c2ccccc2)C2(CCN(CC3COc4ccccc4O3)CC2)C1=O (stereo not drawn),73.4,4.99,36,> 100,> 100,87.3,> 100,45.5,> 100,–
Cc1ccc(/C=N\NC2c3cc(Cl)ccc3Nc3nc(=O)[nH]c(C)c32)cc1 (stereo not drawn),> 100,> 100,> 100,> 100,> 100,> 100,–,> 100,–,> 100
O=C(O)[C@H]1CCCN1CP(=O)(O)CN1CCC[C@@H]1C(=O)O,> 100,> 100,> 100,> 100,–,> 100,> 100,> 100,> 100,–
Cc1c(/C=N\NC(=S)NCCNC(=S)N/N=C\c2c(C)n(C)n(-c3ccccc3)c2=O)c(=O)n(-c2ccccc2)n1C,> 100,> 100,> 100,–,> 100,–,> 100,–,> 100,> 100
O=[N+]([O-])C(=C(Nc1ccccc1)Nc1ccccc1)C(Cl)=C(Cl)Cl,32.2,36.1,41.9,33.4,–,35.7,33.4,27.7,41.8,37.9
OC[C@H]1O[C@@H]2O[C@@](COCc3ccccc3)([C@H](OCc3ccccc3)[C@H]2O)[C@@H]1OCc1ccccc1,27.7,32.9,–,25.2,5.83,–,29.8,38.2,31.3,–
O=C(O)COc1ccccc1C(=O)Nc1ccccc1,> 100,> 100,> 100,> 100,> 100,> 100,> 100,> 100,> 100,–
CC1=CCC([C@@](C)(O)CCCC(C)(C)N=C=S)CC1 (stereo partly drawn),34.7,30.8,28.3,42.4,41.7,30.2,–,43.8,34.9,32.4
C/C(C[n+]1ccccc1)=N\N=C(N)N,> 100,> 100,> 100,> 100,–,> 100,> 100,> 100,> 100,> 100
CCNC(=S)NNC(=O)C12CC3CC(CC(C3)C1)C2,> 100,> 100,> 100,> 100,–,> 100,> 100,> 100,> 100,> 100
CC(C)c1cc2c(c(O)c1O)[C@@]1(C(=O)O)CCCC(C)(C)[C@@H]1CC2,30.8,–,–,> 100,33.7,29.8,51.8,–,40,28.8
CC(O)CNC(=O)C(C)Oc1ccc(OCC2CCCCC2)cc1 (stereo not drawn),> 100,> 100,> 100,> 100,–,> 100,–,> 100,–,> 100
